{"source": "patent US20210008095A1", "about": "“METHODS FOR TREATING MUSCULAR DYSTROPHY” (Sarepta Therapeutics, Inc., priority 2015, published 2021)", "format_in_all_cases": "in vivo, human", "key": {"[1]": {"system": "patients with Duchenne muscular dystrophy (DMD) amenable to exon 51 skipping", "assay": "Pulmonary function testing (MIP, MEP, FVC)", "settings": "baseline through Week 192", "source_text": "In some embodiments, treatment with eteplirsen slows or reduces the progressive respiratory muscle dysfunction and/or failure in patients with DMD that would be expected without treatment. In some embodiments, treatment with eteplirsen stabilizes respiratory muscle function in patients with DMD. In one embodiment, treatment with eteplirsen may reduce or eliminate the need for ventilation assistance that would be expected without treatment. In one embodiment, measurements of respiratory function for tracking the course of the disease, as well as the evaluation of potential therapeutic interventions include Maximum inspiratory pressure (MIP), maximum expiratory pressure (MEP) and forced vital capacity (FVC). MIP and MEP measure the level of pressure a person can generate during inhalation and exhalation, respectively, and are sensitive measures of respiratory muscle strength. […]\n(§1) The 6MWT was administered using the protocol established for patients with DMD by McDonald, et al. (Muscle Nerve, 2010; 42:966-74; Muscle Nerve, 2010; 41:500-10 herein incorporated by reference), except there was no use of the StepWatch actimetry device. Exploratory functional outcomes included the North Star Ambulatory Assessment, quantitative muscle testing, the 9-Hole Peg Test, pulmonary function testing (PFT), timed function tests, and assessment of quality of life."}, "[2]": {"system": "patients with Duchenne muscular dystrophy (DMD) amenable to exon 51 skipping", "assay": "6 Minute Walk Test (6MWT), Study 201/202", "set-up": "key to Year 4 6MWT: 6MWT distance walked, in meters", "settings": "for difference in mean change from baseline in 6MWT distance vs matched external control cohort: 12 treated vs 13 controls; for Year 4 6MWT/6MWD / Year 3 6MWT/6MWD: individual subjects; for Year 4 6MWT Difference in Mean Change: vs external matched control", "description": "For the eteplirsen treated cohort, eligible patients were between 7 and 13 years of age (inclusive), with out-of-frame deletions of the DMD gene that could be corrected by skipping exon 51. Patients were confirmed to have stable cardiac and pulmonary function and a stable dose of glucocorticoids for at least 24 weeks prior to enrollment. Only patients who could walk between 200 and 400 meters […] on the 6-Minute Walk Test (6MWT) at baseline were enrolled.\nThis 4 year trial was conducted in two phases: (1) treatment was double-blind through week 24 and (2) open-label thereafter. The primary endpoint was change in ambulation as measured by the 6-Minute Walk Test (6MWT).\n(§2) Study 201 (Study no. 4658-us-201; ClinicalTrials.gov Identifier: NCT01396239) was a single-site, randomized, double-blind, placebo-controlled, multiple-dose efficacy, safety and tolerability trial of eteplirsen. Twelve patients with DMD were randomized to one of three groups: eteplirsen 30 mg/kg/week (Cohort 1); eteplirsen 50 mg/kg/week (Cohort 2); or placebo/delayed eteplirsen (Cohort 3). All patients received weekly intravenous eteplirsen or placebo/delayed eteplirsen dosing. Placebo-treated patients crossed over to weekly eteplirsen 30 (n=2) or 50 mg/kg (n=2) at week 25. Efficacy and safety were assessed at scheduled visits, and an independent Data Safety Monitoring Board ensured the welfare of all patients. All patients had bicep biopsies at baseline. Follow-up biopsies were performed in the opposite arm (biceps) at week 12 for the 50 mg/kg group and two placebo-treated patients and at week 24 for the 30 mg/kg group and two placebo-treated patients.\n(§3) Patients continued weekly dosing with 30 or 50 mg/kg eteplirsen under Study 202 (Study no. 4658-us-202; ClinicalTrials.gov Identifier: NCT01540409) a long-term, open-label extension study. All efficacy assessments continued to be performed during Study 202, including a third biopsy (in the left deltoid muscle) in all patients at week 48. A voluntary fourth biopsy ( 11/12 patients) was performed at week 180. Monitoring of adverse events continued throughout the study.\n(§4) To compare the results of the eteplirsen cohort to a matched external control cohort, the Italian Telethon (n=97) and Leuven Neuromuscular Research Center (NMRC) (n=89) registries were used to compile control data. These registries were chosen because the following data was available: longitudinal 6MWT data in exon 51 amenable patients, longitudinal 6MWT data up to 36 months, and genetic mutation data. There was also an equivalent standard of care, including steroids, in these registries. Patient data was selected based on the following factors: baseline 6MTW and steroid treatment, age of 7 years or older, and amenable to exon 51 skipping (FIG. 2)\nas §1"}, "[3]": {"system": "patients with Duchenne muscular dystrophy (DMD) amenable to exon 51 skipping", "assay": "Loss of ambulation / ambulatory status incl. Kaplan-Meier analysis, Study 201/202", "description": "as §2, §3, §4, §1"}}, "note": "“And” between values parts separate entries of the source, which are not always exact repeats. Equal values may be shown once. “Also recorded” adds a separate entry of the source. Marks after values point to notes of the source that are not given here."}
{"substance": "RNA, [P-deoxy-P-(dimethylamino)](2′,3′-dideoxy-2′,3′-imino-2′,3′-seco)(2′a→5′)(C-m5U-C-C-A-A-C-A-m5U-C-A-A-G-G-A-A-G-A-m5U-G-G-C-A-m5U-m5U-m5U-C-m5U-A-G), 5′-[P-[4-[[2-[2-(2-hydroxyethoxy)ethoxy]ethoxy]carbonyl]-1-piperazinyl]-N,N-dimethylphosphonamidate] (antisense CTCCAACATCAAGGAAGATGGCATTTCTAG; all phosphorodiamidate morpholino (PMO); 5' piperazinyl triethylene glycol carbamate tail on phosphonamidate, further chemistry not fully specified) [eteplirsen]", "values": [{"measurement": "pulmonary function (MIP, MEP, FVC)", "setting": "[1]", "value": "continued stabilization of pulmonary function; also recorded: either maintained or had only a slight decline in all of MIP, MEP, and FVC"}, {"measurement": "difference in mean change from baseline in 6MWT distance vs matched external control cohort", "setting": "[2]; 4 years", "value": 162, "unit": "m"}, {"measurement": "difference in mean change from baseline in 6MWT distance vs matched external control cohort", "setting": "[2]; 36 months / 3 years", "value": 151, "unit": "m"}, {"measurement": "6MWT distance percent change from baseline", "setting": "[2]; 42 months, all 12 treated patients, external control −74% at month 36", "value": "−42", "unit": "%"}, {"measurement": "6MWT distance percent change from baseline", "setting": "[2]; 48 months, placebo-delayed patients excluded (n=8)", "value": "−43", "unit": "%"}, {"measurement": "Year 4 6MWT/6MWD", "setting": "[2]; 216 weeks, dose group 30 mg/kg", "value": "349 meters and 332 meters and 0 meters (2×)"}, {"measurement": "Year 4 6MWT/6MWD", "setting": "[2]; 216 weeks, dose group 50 mg/kg", "value": "192 meters and 221 meters and 237 meters and 400 meters"}, {"measurement": "Year 4 6MWT/6MWD", "setting": "[2]; 216 weeks, dose group Placebo to 30 mg/kg", "value": "197 meters and 55 meters"}, {"measurement": "Year 4 6MWT/6MWD", "setting": "[2]; 216 weeks, dose group Placebo to 50 mg/kg", "value": "230 meters and 143 meters"}, {"measurement": "Year 4 6MWT", "setting": "[2]; Table 5, individual ambulatory subjects (n=10)", "value": "192 and 197 and 230 and 332 and 221 and 55† and 400 and 349 and 237 and 143"}, {"measurement": "Year 4 6MWT Distance (m)", "setting": "[2]; Table 6, individual ambulatory subjects (n=10)", "value": "55† m and 332 m and 230 m and 221 m and 400 m and 349 m and 192 m and 143 m and 237 m and 197 m"}, {"measurement": "Year 3 6MWT/6MWD", "setting": "[2]; dose group 30 mg/kg", "value": "378 meters and 359 meters and 0 meters (2×)"}, {"measurement": "Year 3 6MWT/6MWD", "setting": "[2]; dose group 50 mg/kg", "value": "324 meters and 355 meters and 298 meters and 483 meters"}, {"measurement": "Year 3 6MWT/6MWD", "setting": "[2]; dose group Placebo to 30 mg/kg", "value": "312 meters and 100 meters"}, {"measurement": "Year 3 6MWT/6MWD", "setting": "[2]; dose group Placebo to 50 mg/kg", "value": "301 meters and 247 meters"}, {"measurement": "walking distance over the study", "setting": "[2]; over the duration of the study, FIG. 6", "value": "maintained a stable walking distance"}, {"measurement": "walking ability retained relative to baseline", "setting": "[2]; several subjects including subject number 4, 216 weeks", "value": "greater than 50%"}, {"measurement": "change in 6MWT relative to baseline", "setting": "[2]; subject number 15, 216 weeks", "value": "lost one meter"}, {"measurement": "6MWT distance at year 4 in patients below the NSAA threshold at year 3", "setting": "[2]; subjects 003 and 005, respectively", "value": "143 meters and 192 meters"}, {"measurement": "Year 4 6MWT Difference in Mean Change", "setting": "[2]; ANCOVA, Covariate: Baseline 6MWT", "value": "150.3, p = 0.002"}, {"measurement": "Year 4 6MWT Difference in Mean Change", "setting": "[2]; ANCOVA, Covariates: Baseline 6MWT, Age", "value": "156.1, p = 0.002"}, {"measurement": "Year 4 6MWT Difference in Mean Change", "setting": "[2]; ANCOVA, Rank transformed data", "value": "8.7, p = 0.001"}, {"measurement": "Year 4 6MWT Difference in Mean Change", "setting": "[2]; MMRM, Covariate: Baseline 6MWT", "value": "146.5, p = 0.003"}, {"measurement": "Year 4 6MWT Difference in Mean Change", "setting": "[2]; MMRM, Covariates: Baseline 6MWT, Age", "value": "143.1, p = 0.004"}, {"measurement": "Year 4 6MWT Difference in Mean Change", "setting": "[2]; MMRM, Rank transformed data", "value": "8.4, p = 0.004"}, {"measurement": "patient ambulation between weeks 168 and 192", "setting": "[2]; weeks 168 to 192 (42 to 48 months)", "value": "patient ambulation stabilized; also recorded: stabilized patient ambulation"}, {"measurement": "Kaplan-Meier estimate for loss of ambulation rate", "setting": "[3]; 4 years / 216 weeks of treatment, external control 89.7%, p=0.0038 log-rank", "value": 16.7, "unit": "%"}, {"measurement": "patients remaining ambulant", "setting": "[3]; 216 weeks (over 4 years)", "value": 83.3, "unit": "%"}, {"measurement": "number of patients remaining ambulant", "setting": "[3]; 216 weeks of treatment", "value": "10 out of 12"}, {"measurement": "age for loss of ambulation", "setting": "[3]; Kaplan-Meier, external control median 12.8 years", "value": "could not be estimated"}, {"measurement": "number of patients who lost ambulation", "setting": "[3]; over 36 months", "value": "two of the twelve"}, {"measurement": "cohort that lost ambulation (cumulative)", "setting": "[3]; over 36 months, external control 46.2%", "value": 16.7, "unit": "%"}, {"measurement": "number of patients who lost ambulation", "setting": "[3]; over 216 weeks", "value": "two of the twelve"}, {"measurement": "DMD patients remaining ambulant", "setting": "[3]; week 192, 30 mg/kg once per week", "value": 83, "unit": "%"}, {"measurement": "number of patients ambulant", "setting": "[3]; week 192 of treatment", "value": "10/12"}, {"measurement": "ambulation in patients who lost the ability to rise from supine", "setting": "[3]; year 4 of treatment", "value": "remained ambulant at year 4"}]}
